According to ChEMBL document CHEMBL1201862, “PubChem BioAssay data set” (2004):
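In this assay, cells in 96-well plates receive the compound at five concentrations for 48 hours. Endpoints are linearly interpolated between the surrounding concentrations. Here, GI50 denotes the concentration required for 50% inhibition of growth.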 Active and inactive are the calls of the source. Cut-off read from the data, not from the text of the source: active = GI50 up to about 1.1 µM and inactive = higher.

What was measured:
Assay in all cases: inhibition of tumour cell growth, NCI panel, 48 h
Malme-3M = test system: Malme-3M
HCT-116 = test system: HCT-116
NCI-H460 = test system: NCI-H460
KM12 = test system: KM12
OVCAR-3 = test system: OVCAR-3
T47D = test system: T47D
LOX IMVI = test system: LOX IMVI
BT-549 = test system: BT-549
786-0 = test system: 786-0
TK-10 = test system: TK-10
U-251 = test system: U-251
HCT-15 = test system: HCT-15
K562 = test system: K562
SN12C = test system: SN12C
HT-29 = test system: HT-29
DU-145 = test system: DU-145
MCF7 = test system: MCF7
SK-OV-3 = test system: SK-OV-3
SNB-75 = test system: SNB-75
SF-539 = test system: SF-539

SMILES	GI50 (Malme-3M)	GI50 (HCT-116)	GI50 (NCI-H460)	GI50 (KM12)	GI50 (OVCAR-3)	GI50 (T47D)	GI50 (LOX IMVI)	GI50 (BT-549)	GI50 (786-0)	GI50 (TK-10)	GI50 (U-251)	GI50 (HCT-15) [µM]	GI50 (K562)	GI50 (SN12C)	GI50 (HT-29)	GI50 (DU-145)	GI50 (MCF7)	GI50 (SK-OV-3)	GI50 (SNB-75)	GI50 (SF-539)
O=C(O)c1oc(C(=O)O)c(C(=O)O)c1C(=O)O	> 100 µM (inactive)	> 100 µM (inactive)	> 100 µM (inactive)	> 100 µM (inactive)	> 100 µM (inactive)	> 100 µM (inactive)	> 100 µM (inactive)	> 100 µM (inactive)	> 100 µM (inactive)	> 100 µM (inactive)	> 100 µM (inactive)	> 100	> 100 µM (inactive)	> 100 µM (inactive)	> 100 µM (inactive)	> 100 µM (inactive)	–	–	–	–
O=C1NC(=S)NC(=O)C1C(c1ccccc1[N+](=O)[O-])C1C(=O)NC(=S)NC1=O.c1ccncc1	> 100 µM (inactive)	> 100 µM (inactive)	> 100 µM (inactive)	> 100 µM (inactive)	> 100 µM (inactive)	> 100 µM (inactive)	> 100 µM (inactive)	> 100 µM (inactive)	> 100 µM (inactive)	> 100 µM (inactive)	> 100 µM (inactive)	> 100	> 100 µM (inactive)	> 100 µM (inactive)	> 100 µM (inactive)	> 100 µM (inactive)	> 100 µM (inactive)	–	–	–
CC1=NN(c2cccc(Cl)c2)C2(C1)C(Cl)C(=O)N2c1nc2ccccc2s1 (stereo unspecified)	30.5 µM (inactive)	19.2 µM (inactive)	36.6 µM (inactive)	22.3 µM (inactive)	20.5 µM (inactive)	26.2 µM (inactive)	18.7 µM (inactive)	27.8 µM (inactive)	21.1 µM (inactive)	90.2 µM (inactive)	23.9 µM (inactive)	28.8	16.2 µM (inactive)	22.8 µM (inactive)	33.6 µM (inactive)	37.1 µM (inactive)	32.1 µM (inactive)	28 µM (inactive)	21.6 µM (inactive)	–
Cc1cccc(C)c1NC(=S)NC=C1C(=O)c2ccccc2C1=O	–	4.62 µM (inactive)	3.98 µM (inactive)	2.83 µM (inactive)	5.38 µM (inactive)	6.17 µM (inactive)	19.1 µM (inactive)	4.84 µM (inactive)	13.1 µM (inactive)	6.73 µM (inactive)	3.09 µM (inactive)	7.35	3.61 µM (inactive)	9.42 µM (inactive)	5.78 µM (inactive)	12.1 µM (inactive)	4.59 µM (inactive)	18.4 µM (inactive)	3.52 µM (inactive)	11.2 µM (inactive)
Cn1c(=O)c2c(nc3n2CC(=O)N3CCCCl)n(C)c1=O	–	> 100 µM (inactive)	> 100 µM (inactive)	> 100 µM (inactive)	> 100 µM (inactive)	> 100 µM (inactive)	> 100 µM (inactive)	> 100 µM (inactive)	> 100 µM (inactive)	> 100 µM (inactive)	> 100 µM (inactive)	> 100	> 100 µM (inactive)	> 100 µM (inactive)	> 100 µM (inactive)	> 100 µM (inactive)	> 100 µM (inactive)	> 100 µM (inactive)	> 100 µM (inactive)	–
[N-]=[N+]=Nc1cc(=O)n(-c2ccccc2)c(=O)n1-c1ccccc1	> 100 µM (inactive)	> 100 µM (inactive)	–	> 100 µM (inactive)	> 100 µM (inactive)	> 100 µM (inactive)	–	> 100 µM (inactive)	> 100 µM (inactive)	> 100 µM (inactive)	> 100 µM (inactive)	–	> 100 µM (inactive)	> 100 µM (inactive)	> 100 µM (inactive)	–	> 100 µM (inactive)	> 100 µM (inactive)	> 100 µM (inactive)	> 100 µM (inactive)
CCN(CC)Cc1ccc(C(=S)Nc2ccc(C)cc2)s1	16.5 µM (inactive)	15.1 µM (inactive)	15.4 µM (inactive)	15.3 µM (inactive)	21.2 µM (inactive)	15.9 µM (inactive)	16 µM (inactive)	20.3 µM (inactive)	15.5 µM (inactive)	–	14.7 µM (inactive)	16.4	6.59 µM (inactive)	–	4.08 µM (inactive)	20.5 µM (inactive)	12.3 µM (inactive)	15.6 µM (inactive)	–	20.4 µM (inactive)
COC(=O)[C@]12CC[C@H]3CC[C@H]([C@H]31)[C@H](c1ccccc1)N2	–	15.6 µM (inactive)	15.9 µM (inactive)	18.5 µM (inactive)	15.2 µM (inactive)	16.4 µM (inactive)	17.3 µM (inactive)	18.4 µM (inactive)	15.7 µM (inactive)	17.2 µM (inactive)	17 µM (inactive)	18.2	14.2 µM (inactive)	15.7 µM (inactive)	15.1 µM (inactive)	18.5 µM (inactive)	16 µM (inactive)	25.4 µM (inactive)	26.9 µM (inactive)	16.5 µM (inactive)
